# Measurements published in patent US6046177A, “Sulfoalkyl ether cyclodextrin based controlled release solid pharmaceutical formulations” (Cydex, Inc., priority 1999, dated 2000).
# How the values were obtained:
# [1] = In vitro release of methylprednisolone and SBE7 β-CD from tablets (USP apparatus II); type: physicochemical
# Procedure: The MP and SBE7 β-CD (present in a 1:7 molar ratio) along with a pharmaceutical carrier were compressed into a solid core which was spray coated with a mixture of ethylcellulose, PEG3350, PEG400 and ethanol to form a 140 μm thick film coating around the solid core. The dissolution profile was determined using USP dissolution apparatus II (100 rpm, 37° C.) and an HPLC assay for methylprednisolone (MP). […] The first formulation, indicated in FIG. 1 by the hollow circles, contains the separately preformed MP-SBE7 β CD freeze-dried complex. The second formulation, indicated by the filled in circles, contains a major portion of uncomplexed MP as a physical mixture with SBE7 β-CD. The third formulation, indicate by the squares, contains a physical mixture of lactose, fructose and MP.
# The tablet core was prepared with a 1/7 molar ratio of methylprednisolone/(SBE)7 -β-CD. This ratio was calculated using the previously determined binding constant in order to have sufficient (SBE)7 -β-CD in the tablet core to solubilize all the methylprednisolone present. […] The tablet core consisted of either the methylprednisolone-(SBE)7-β-CD complex or the physical mixture of the two compounds. The complex was prepared by freeze drying a methylprednisolone-(SBE)7 -β-CD solution (5-15% in (SBE)7-β-CD). Non (SBE)7 -β-CD containing tablets were also prepared. They consisted of a 1/7 ratio of methylprednisolone to a 50:50 (w/w) mixture of fructose and lactose (Fischer Scientific, N.J.). The mixtures were ground in a mortar and sieved through a 200 mesh (75 μm) screen under low humidity conditions. The mixtures were stored in a dessicator when not used. Tablets of around 150 mg were compressed into the dissolution die using a Carver Laboratory Press (Fred S. Carver Inc., N.J.) at 1 ton during 1 min.
# The coating formulation was prepared by mixing 4.5% of ethylcellulose (Ethocel Standard 10 Premium, Dow Chemicals, Mich.) with an equivalent amount of poly(ethylene glycol) 3350 (PEG 3350, Sigma, MO). 0.9% of PEG 400 (Sigma, MO) and 90.1% of absolute ethanol were added to the mixture. The dispersion was shaken and sonicated until complete dissolution of the solid components. The coating solution was air sprayed (Airbrush, Paasche) on a Teflon surface under constant air flow (40° C.). At the end of the spraying, the membranes were dried under the 40° C. air flow for 5 min. They were then left at room temperature during 24 hours. The membranes were peeled off the Teflon surface, checked for cracks and flaws under a light microscope (X70) and their thickness was measured using a micrometer (Ames, Mass.). The membranes were then secured on the dissolution die containing the tablet, with the face which was sprayed on the Teflon in contact with the tablet surface.
# The release studies were realized by placing the dissolution die in a USP dissolution apparatus II (Vanderkamp 600, VanKel Industries Inc.) containing 350 ml of water at 37° C., 100 rpm. Samples were collected at various time points. The 100% release was determined by removing the membrane from the die and allowing the drug dissolution to be complete.
# [2] = Release of methylprednisolone from tablets with […] RS/RL coating without pore forming agent (FIG. 15); type: physicochemical; conditions: Eudragit RS:RL 9 to 1, approximately 5 wt.% coating
# Text: As previously mentioned, it is not required that a pharmaceutical formulation according to the invention comprise a coated core wherein the coat comprises a film forming agent and a pore forming agent. […] In this formulation, the coat comprises a combination of Eudragit™ RS and Eudragit™ RL in a 9 to 1 weight ratio and the coating on the core of the tablet comprises approximately 5 wt.% of the total weight of the tablet. Accordingly, the present invention also provides controlled release pharmaceutical formulations consisting essentially of a core surrounded by a coat which comprises a film forming agent wherein the coat controls the rate of delivery of the drug even absent a pore forming agent in the coating.
# The above formulation was prepared by first reducing the particle size of the SBE7 -βCD with a wedgewood mortar and pestle and then passing the powder through a 100 mesh screen. The sodium stearyl fumarate was also sieved through a 100 mesh screen prior to use. The SBE7 -βCD and MP were blended together geometrically in a glass mortar. The CEOLUS™, SUPERTAB™, PRUV™ components were then added in order in sequential steps while mixing. Tablets weighing approximately 250 mg each were compressed by hand on a Stokes B2 tablet press using 7 mm standard cup concave toolings. The tablets were compressed to a hardness of approximately 14 kp. […]
# [3] = glibomuride-β-cyclodextrin complex vs. physical mixture; cited from earlier work
# [4] = In vitro release of testosterone from tablets (USP apparatus II); type: physicochemical; conditions: 1:1 molar TST:SBE7 β-CD; sorbitol/PEG 400/cellulose acetate film; FIG. 8
# Procedure: (FIG. 8) The solid core of the tablet comprised a 1:1 molar ratio of TST and SBE7 β-CD. The film coating of this tablet comprised sorbitol, PEG 400 and cellulose acetate. The release profiles of the physical mixture and complex formulation were compared to that of a baseline TST/fructose-lactose formulation.
# The tablet core was prepared with a 1/1 molar ratio of testosterone/(SBE)7 -β-CD. The tablet core consisted of either the testosterone-(SBE)7 -β-CD complex or the physical mixture of the two compounds. The complex was prepared by freeze-drying a testosterone-(SBE)7 -β-CD solution (5-15% in (SBE)7m -β-CD). Non (SBE)7 -β-CD containing tablets were also prepared. […]
# Semi-permeable Membrane Preparation The coating formulation was prepared by dissolving 1.0% of sorbitol (Sigma, MO) in 3.7% of double distilled water and 0.4% of PEG 400 (Sigma, MO). […] The membranes were peeled off the surface, checked for cracks and flaws under a light microscope (X70) and their thickness was measured using a Micrometer (Ames, Mass.). […]
# The release studies were realized by placing the dissolution die in a USP dissolution apparatus II (Vanderkamp 600, VanKel Industries Inc.) containing 900 ml of water at 37° C., 100 rpm. […] The 100% release was determined by removing the membrane from the die and allowing the drug dissolution to be complete. The samples were analyzed by HPLC for testosterone concentration.
# [5] = Release of testosterone from osmotic pumps; type: physicochemical; conditions: osmotic pump with (SBE)7m -β-CD vs. sugar mixture or HP-β-CD; FIG. 25
# Procedure: For the preparation of cores, physical mixtures of TS with (SBE)7m -β-CD, HP-β-CD or sugar (physical mixture of lactose and fructose, 1/1) each containing 10 mg TS were compressed at 1 ton/cm^2 for 60 sec using a Carver™ Laboratory Press with a 6.35 mm flat faced punch. The molar ratios of TS to (SBE)7m -β-CD in the physical mixtures ranged from 1:1 to 1:1.43 and that in the physical mixture with HP-β-CD ranged from 1:1 to 1:1.79. The physical mixtures of TS with the β-CD derivatives or sugar were prepared using a mortar and a pestle. The compressed tablet core was placed in a tablet die as described above. […]
# The dissolution and release rates of TS from core tablets (no membrane covering) or the osmotic pump devices (core tablets covered by a semipermeable membrane) were measured using a USP apparatus utilizing the paddle method. […] The amount of each osmotic pump agent, (SBE)7m -β-CD, HP-β-CD and sugar, released from the OPT was calculated by difference from the weight of the total ingredients released and the weight of the remaining released components at each sampling time in the study. […] The weight of the released osmotic agent was measured as a residual weight after evaporating and vacuum drying a 200 ml solution sample for 12 hr at 60° C. […]
structure (smiles),measurement,setting,value
C[C@H]1C[C@@H]2[C@H]([C@@H](O)C[C@@]3(C)[C@H]2CC[C@]3(O)C(=O)CO)[C@@]2(C)C=CC(=O)C=C12 [methylprednisolone],"release profile, MP vs. SBE7 β-CD","[1]; 140 μm film, FIG. 2a, 2b",substantially the same release profiles
same,"release profile, physical mixture vs. freeze dried complex","[1]; 200 μm film, FIG. 3a, 3b",a slight difference was noted in the release profiles of the physical mixture versus the freeze dried complex
same,"release profile, physical mixture vs. preformed complex","[1]; MP:SBE7 β-CD 1:7 molar, 140 μm ethylcellulose/PEG film, FIG. 1, 2",release profile similar to or substantially similar to the former
same,effect of MP/SBE7 β-CD ratio on release,"[1]; film coated tablets, ratios 1/10, 1/7, 1/3, FIG. 7a-7d",decreasing the relative amount of SBE7 β-CD decreases the observed release profile for MP
same,"release profile, physical mixture vs. complex, uncoated core","[1]; no film, FIG. 6",The physical mixture exhibits substantially the same release profiles as the complex
same,"release characteristics, physical mixture vs. freeze dried complex","[1]; ratios 1/10, 1/7, 1/3, FIG. 7a-7d",substantially the same release characteristics
same,"release of MP, coat without pore forming agent",[2],MP is released from a tablet formulation
Cc1ccc(S(=O)(=O)NC(=O)NC2C3CCC(C)(C2O)C3(C)C)cc1 (stereo not shown) [glibomuride],bioavailability of complex vs. physical mixture,[3],two to three fold better
C[C@]12CC[C@H]3[C@@H](CCC4=CC(=O)CC[C@@]43C)[C@@H]1CC[C@@H]2O [testosterone],"release profile, physical mixture vs. freeze dried complex",[4],exhibited the same release profile as the respective freeze dried mixture
same,release from osmotic pumps,[5],released a greater amount of TS and at a more acceptable rate than the osmotic pumps containing the sugar mixture or HP-β-CD
